Data from ChEMBL document CHEMBL3872261, “Coumarins and other fused bicyclic heterocycles with selective tumor-associated carbonic anhydrase isoforms inhibitory activity” (Bioorg Med Chem, 2017).

Tests used:
[1] = target: Carbonic anhydrase 1 (Homo sapiens, UniProt P00915); experiment: Inhibition of human recombinant carbonic anhydrase-1 preincubated for 6 hrs by stopped-flow CO2 hydration assay
[2] = target: Carbonic anhydrase 9 (Homo sapiens, UniProt Q16790); experiment: Inhibition of human recombinant carbonic anhydrase-9 preincubated for 6 hrs by stopped-flow CO2 hydration assay
[3] = target: Carbonic anhydrase 2 (Homo sapiens, UniProt P00918); experiment: Inhibition of human recombinant carbonic anhydrase-2 preincubated for 6 hrs by stopped-flow CO2 hydration assay
[4] = target: Carbonic anhydrase 12 (Homo sapiens, UniProt O43570); experiment: Inhibition of human recombinant carbonic anhydrase-12 preincubated for 6 hrs by stopped-flow CO2 hydration assay
Chain of Carbonic anhydrase 12 (O43570 whole entry): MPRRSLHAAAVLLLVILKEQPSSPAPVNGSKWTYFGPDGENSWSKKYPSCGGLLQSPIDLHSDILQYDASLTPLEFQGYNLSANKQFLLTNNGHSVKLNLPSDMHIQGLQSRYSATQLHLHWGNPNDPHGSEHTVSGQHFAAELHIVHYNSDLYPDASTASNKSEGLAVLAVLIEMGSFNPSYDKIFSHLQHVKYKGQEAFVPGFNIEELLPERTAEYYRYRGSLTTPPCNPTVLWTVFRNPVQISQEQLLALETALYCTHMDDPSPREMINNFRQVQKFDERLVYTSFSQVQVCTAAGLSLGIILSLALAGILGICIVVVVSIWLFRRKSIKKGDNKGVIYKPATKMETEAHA

Chain of Carbonic anhydrase 1 (P00915 whole entry): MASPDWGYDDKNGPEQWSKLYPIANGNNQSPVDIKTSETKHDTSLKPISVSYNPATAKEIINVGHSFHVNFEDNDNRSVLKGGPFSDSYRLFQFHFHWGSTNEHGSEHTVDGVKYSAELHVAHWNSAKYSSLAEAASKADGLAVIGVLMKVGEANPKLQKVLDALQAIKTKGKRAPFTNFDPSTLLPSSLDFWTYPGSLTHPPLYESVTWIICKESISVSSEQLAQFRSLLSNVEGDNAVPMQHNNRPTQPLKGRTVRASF

SMILES | Ki [1] [nM] | Ki [2] [nM] | Ki [3] [nM] | Ki [4] [nM]
CC1=Nc2ccccc2S(=O)(=O)N1 | 13800 | 349 | 642 | 
O=C(Nc1ccccc1C(=O)Nc1ccc2c(C(F)(F)F)cc(=O)oc2c1)c1ccc(F)cc1 | > 500000 | 20 | > 500000 | 
O=c1[nH]c(=O)c2cc([N+](=O)[O-])ccc2[nH]1 | > 500000 | 5470 | > 500000 | 
Cc1cc(=O)oc2cc(NC(=O)c3ccccc3NC(=O)c3ccccc3)ccc12 | > 500000 | 21.6 | > 500000 | 
Cc1cc(=O)oc2cc(NC(=O)c3ccccc3NC(=O)c3ccc(F)cc3)ccc12 | > 500000 | 15.1 | > 500000 | 
O=C(Nc1ccccc1C(=O)Nc1ccc2c(C(F)(F)F)cc(=O)oc2c1)c1ccc(Cl)cc1 | > 500000 | 24.5 | > 500000 | 
O=C1Nc2ccccc2S(=O)(=O)N1 | 783 | 87.4 | 127 | 
Cc1cc(=O)oc2cc(NC(=O)c3ccccc3NC(=O)c3ccc(Cl)cc3)ccc12 | > 500000 | 18.4 | > 500000 | 
O=S1(=O)NC=Nc2ccccc21 | 12600 | 116 | 378 | 
O=C(Nc1ccccc1C(=O)Nc1ccc2c(C(F)(F)F)cc(=O)oc2c1)c1ccccc1 | > 500000 | 10.9 | > 500000 | 
O=c1[nH]cnc2ccccc12 [QUINAZOLINONE] |  | 15700 | > 500000 | 10500
